From ChEMBL document CHEMBL4837215, “Application of cation-π interactions in enzyme-substrate binding: Design, synthesis, biological evaluation, and molecular dynamics insights of novel hydrophilic substrates for NQO1” (Eur J Med Chem, 2021)
≈ marks a conversion by molar mass, not a printed value. Calls of active or inactive are those of the source. No cut-off for these calls is given here.

Key:
[1] = Selectivity index, ratio of IC50 for NQO1-deficient human L02 cells to IC50 for human A549 cells overexpressing NQO1 incubated for 72 hrs by MTT assay
A549 [2] = assay: Cytotoxicity against human A549 cells overexpressing NQO1 assessed as reduction in cell viability incubated for 72 hrs by MTT assay; format: functional, cell-based; conditions: A549, 72 h
[3] = biological target: NAD(P)H dehydrogenase [quinone] 1 (Homo sapiens) (UniProt P15559); assay: Substrate activity at recombinant human NQO1 assessed as enzymatic reduction rate at 10 uM
L02 = assay: Cytotoxicity against NQO1-deficient human L02 cells assessed as reduction in cell viability incubated for 72 hrs by MTT assay; format: cell-based; conditions: L02, 72 h
[4] = Lipophilicity, logD of the compound at pH 7.4 by potentiometric titration method; format: physicochemical; conditions: buffer
[5] = Solubility of the compound in pH 3 after 8 hrs by potentiometric titration method; format: physicochemical; conditions: buffer
[6] = Intrinsic solubility of the compound after 8 hrs by potentiometric titration method; format: physicochemical; conditions: read-out: Intrinsic_solubility
A549 [7] = assay: Cytotoxicity against NQO1-deficient human A549 cells assessed as reduction in cell viability pretreated with DIC followed by compound addition and incubated for 72 hrs by MTT assay; format: functional, cell-based
[8] = Selectivity index, ratio of IC50 for NQO1-deficient human NCI-H596 cells to IC50 for human A549 cells overexpressing NQO1 incubated for 72 hrs by MTT assay
NCI-H596 = assay: Cytotoxicity against NQO1-deficient human NCI-H596 cells assessed as reduction in cell viability incubated for 72 hrs by MTT assay; format: functional, cell-based; conditions: NCI-H596, 72 h
[9] = Selectivity index, ratio of IC50 for human A549 cells overexpressing NQO1 to IC50 for NQO1-deficient human A549 cells assessed as reduction in cell viability pretreated with DIC followed by compound addition and measured after 72 hrs by MTT assay
A549/TR = assay: Cytotoxicity against human A549/Taxol cells overexpressing NQO1 assessed as reduction in cell viability incubated for 72 hrs by MTT assay; format: functional, cell-based
A549 [10] = assay: Cytotoxicity against human DPP-resistant A549 cells overexpressing NQO1 assessed as reduction in cell viability incubated for 72 hrs by MTT assay; format: functional, cell-based; conditions: A549, 72 h
[11] = biological target: NAD(P)H dehydrogenase [quinone] 1 (Homo sapiens) (UniProt P15559); assay: Induction of recombinant human NQO1-mediated ROS generation assessed as rate of reduction of cytochrome C at 25 uM in presence of DIC by spectrophotometric assay
A549 [12] = assay: Induction of ROS generation in human A549 cells at 1 to 10 uM incubated for 3 hrs by DCFH-DA staining based confocal laser scanning microscopic method; format: functional, cell-based; conditions: dose 1-10 µM
A549 [13] = assay: Induction of superoxide anion generation in human A549 cells at 1 to 10 uM incubated for 3 hrs by […] staining based confocal laser scanning microscopic method; format: functional, cell-based; conditions: dose 1-10 µM
A549 [14] = assay: Induction of superoxide anion generation in human A549 cells at 10 uM pretreated with DIC or NAC for 1 hr followed by compound addition and measured after 3 hrs by […] staining based confocal laser scanning microscopic method; format: functional, cell-based
[15] = biological target: NAD(P)H dehydrogenase [quinone] 1 (Homo sapiens) (UniProt P15559); assay: Induction of recombinant human NQO1-mediated ROS generation assessed as rate of reduction of cytochrome C at 25 uM by spectrophotometric assay; conditions: filed as activator
A549 [16] = assay: Induction of ROS generation in human A549 cells at 10 uM pretreated with DIC or NAC for 1 hr followed by compound addition and measured after 3 hrs by DCFH-DA staining based confocal laser scanning microscopic method; format: functional, cell-based
A549 [17] = assay: Induction of apoptosis in human A549 cells assessed as condensed nuclei at 1 to 10 uM measured after 24 hrs by DAPI based confocal laser scanning microscopic method; format: functional, cell-based; conditions: dose 1-10 µM

NAD(P)H dehydrogenase [quinone] 1 (Homo sapiens), sequence (P15559 whole entry): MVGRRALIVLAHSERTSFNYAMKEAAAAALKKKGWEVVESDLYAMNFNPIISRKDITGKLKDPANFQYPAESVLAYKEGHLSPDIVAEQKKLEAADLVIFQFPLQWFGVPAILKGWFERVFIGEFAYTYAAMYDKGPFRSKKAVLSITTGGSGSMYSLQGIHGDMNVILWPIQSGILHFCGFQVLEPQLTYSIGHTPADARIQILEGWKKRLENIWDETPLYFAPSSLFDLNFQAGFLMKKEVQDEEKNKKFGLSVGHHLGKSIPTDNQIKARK

| SMILES | Activity [3] [µmol/min] | Ratio IC50 [1] | IC50 (A549 [2]) [µM] | IC50 (L02) [µM] | also measured |
| --- | --- | --- | --- | --- | --- |
| Cc1cc2c(cc1C)-c1oc(CN3CCC(N4CCCC4)CC3)c(C)c1C(=O)C2=O | 848 | 3.58 | 8.7 | 31.2 |  |
| Cc1cc2c(cc1C)-c1oc(CN3CCC(N4CCN(C)CC4)CC3)c(C)c1C(=O)C2=O | 904 | 4.38 | 6.8 | 29.8 |  |
| Cc1cc2c(cc1C)-c1oc(CN3CCN4CCCC4C3)c(C)c1C(=O)C2=O (stereo not given) | 1070 | 7.66 | 4.3 | 32.9 |  |
| Cc1cc2c(cc1C)-c1oc(CN3CCN4CCCCC4C3)c(C)c1C(=O)C2=O (stereo not given) | 1030 | 7.02 | 4.5 | 31.6 |  |
| Cc1cc2c(cc1C)-c1oc(CN3CCC(N4CCOCC4)CC3)c(C)c1C(=O)C2=O | 951 | 5.16 | 5.6 | 28.9 |  |
| CC1(C)CCC2=C(O1)c1ccccc1C(=O)C2=O [LAPACHONE] |  | 1.68 |  | 9.6 | IC50 (A549 [7]): 29 µM; Ratio IC50 [8]: 4.7; IC50 (NCI-H596): 27 µM; Ratio IC50 [9]: 5.1; IC50 (A549/TR): 11 µM; IC50 (A549 [10]): 16 µM |
| Cc1cc2c(cc1C)-c1oc(CN3CCC(N4CCCCC4)CC3)c(C)c1C(=O)C2=O | 795 | 4.45 | 9.1 | 40.5 |  |
| Cc1cc2c(cc1C)-c1oc(CN(C)C)c(C)c1C(=O)C2=O | 704 | 3.12 | 15 | 46.9 |  |
| Cc1cc2c(cc1C)-c1occ(C)c1C(=O)C2=O | 690 | 4.24 | 7.4 | 31.4 |  |

Continued, in another order:

| Activity [3] [µmol/min] | SMILES | Ratio IC50 [1] | IC50 (A549 [2]) [µM] | IC50 (L02) [µM] | also measured |
| --- | --- | --- | --- | --- | --- |
| 1160 | Cc1cc2c(cc1C)-c1oc(CN3CCN(CCO)CC3)c(C)c1C(=O)C2=O | 11.56 | 3.1 | 35.8 | logD [4]: 2.01; solubility at 8 h [5]: > 1000 µg/mL; solubility at 8 h [6]: 61 µg/mL (≈ 159 µM) |
| 871 | Cc1cc2c(cc1C)-c1oc(CN3CCN(S(C)(=O)=O)CC3)c(C)c1C(=O)C2=O | 4.33 | 7.2 | 31.2 |  |
| 768 | Cc1cc2c(cc1C)-c1oc(CN3CCCCC3)c(C)c1C(=O)C2=O | 3.79 | 12 | 45.5 |  |
| 1200 | CCN1CCN(Cc2oc3c(c2C)C(=O)C(=O)c2cc(C)c(C)cc2-3)CC1 | 12.36 | 2.9 | 35.8 | logD [4]: 1.99; solubility at 8 h [5]: > 1000 µg/mL; solubility at 8 h [6]: 82 µg/mL (≈ 224 µM) |
| 996 | Cc1cc2c(cc1C)-c1oc(CN3CCOCC3)c(C)c1C(=O)C2=O | 5.81 | 4.9 | 28.5 |  |
| 1100 | Cc1cc2c(cc1C)-c1oc(CN3CCN(C4CC4)CC3)c(C)c1C(=O)C2=O | 8.86 | 3.9 | 34.6 |  |
| 1260 | Cc1cc2c(cc1C)-c1oc(CN3CCN(C)CC3)c(C)c1C(=O)C2=O | 15.06 | 2.4 | 36.2 | Activity [11]: inactive; IC50 (A549 [7]): 30 µM; Ratio IC50 [8]: 11; IC50 (NCI-H596): 27 µM; logD [4]: 1.97; solubility at 8 h [5]: > 1000 µg/mL; Activity (A549 [12]): Active; Ratio IC50 [9]: >12.5; solubility at 8 h [6]: 110 µg/mL (≈ 312 µM); Activity (A549 [13]): Active; Activity (A549 [14]): inactive; Activity [15]: Active; IC50 (A549/TR): 4.5 µM; IC50 (A549 [10]): 4.8 µM; Activity (A549 [16]): inactive; Activity (A549 [17]): Active |
